This is an account of results in patent US8258304B2, “N-aryl piperidine substituted biphenylcarboxamides” (Janssen Pharmaceutica N.V., priority 2002, dated 2012).

Test system in the first data set: not given
Experiment: not given
Conditions: not given
Broadly, the melting point is the temperature of the solid-liquid transition. In turn, `CCOC(=O)CC1CCN(c2ccc(NC(=O)c3cccc(C)c3-c3ccc(C(F)(F)F)cc3)cn2)CC1` [Compound 14] gave a melting point of 134 to 137 °C.

The subject of a further data set is secretion of ApoB in HepG2 cells. The experiment in a line: Quantification of the secretion of ApoB. The note with it: Homo sapiens, 24 hours of incubation with test compound, apoB immunoprecipitated from medium, read-out: pIC50 values (=−log IC50 value) (converted). The data set is classed as cell-based. The protocol: HepG2 cells were cultured in 24-well plates in MEM Rega 3 containing 10% fetal calf serum. At 70% confluency, the medium was changed and the test compound or carrier (DMSO, 0.4% final concentration) was added. After 24 hours of incubation, the medium was transferred to Eppendorf tubes and cleared by centrifugation. A sheep antibody directed against either apoB was added to the supernatant and the mixture was kept at 8° C. for 24 hours. Then, rabbit anti-sheep antibody was added and the immune complex was allowed to precipitate for 24 hours at 8° C. The immunoprecipitate was pelleted by centrifugation for 25 minutes at 1320 g and washed twice with a buffer containing 40 mM Mops, 40 mM NaH2PO4, 100 mM NaF, 0.2 mM DTT, 5 mM EDTA, 5 mM EGTA, 1% Triton-X-100, 0.5% sodium deoxycholate (DOC), 0.1% SDS, 0.2 μM leupeptin and 0.2 μM PMSF. Radioactivity in the pellet was quantified by liquid scintillation counting.
Resulting IC50 values are enumerated in Table C.1.
One may read the IC50 as the concentration needed to halve the response being measured. As for `O=C(CC1CCN(c2ccc(NC(=O)c3ccccc3-c3ccc(C(F)(F)F)cc3)cc2)CC1)NCc1ccccc1` [Compound 3], the half-inhibitory concentration (IC50) is 3.56 nM. The same measure, in the same setting: then `CCOC(=O)CC1CCN(c2ccc(NC(=O)c3cccc(C)c3-c3ccc(C(F)(F)F)cc3)cn2)CC1` [Compound 14], with 9.29 nM; and `O=C(Nc1ccc(N2CCC(C(=O)NCc3ccccc3)CC2)cc1)c1ccccc1-c1ccc(C(F)(F)F)cc1` [Compound 1], with 25.4 nM; and `CCOC(=O)CC1CCN(c2ccc(NC(=O)c3cccc(C)c3-c3ccc(C(F)(F)F)cc3)cc2)CC1` [Compound 10], with 11.3 nM. On the same count and under the same terms, the value for `CCNC(=O)CC1CCN(c2ccc(NC(=O)c3ccccc3-c3ccc(C(C)(C)C)cc3)cc2)CC1` [Compound 7] was 2.39 nM; that for `CCNC(=O)CC1CCN(c2ccc(NC(=O)c3ccccc3-c3ccc(C(F)(F)F)cc3)cc2)CC1` [Compound 5] was 38.4 nM; that for `CCOC(=O)CC1CCN(c2ccc(NC(=O)c3ccc(C)cc3-c3ccc(C(F)(F)F)cc3)cc2)CC1` [Compound 12] was 31.4 nM. On the same count and under the same terms, then `CCOC(=O)CC1CCN(c2ccc(NC(=O)c3ccccc3-c3ccc(C(F)(F)F)cc3)cn2)CC1` [Compound 13], with 89.5 nM; and `COC(=O)C1CCN(c2ccc(NC(=O)c3ccccc3-c3ccc(C(F)(F)F)cc3)cc2)CC1` [Compound 9], with 619 nM. On to `CCNC(=O)C1CCN(c2ccc(NC(=O)c3ccccc3-c3ccc(C(C)(C)C)cc3)cc2)CC1` [Compound 6], for which the IC50 was 11.6 nM.

`CCNC(=O)C1CCN(c2ccc(NC(=O)c3ccccc3-c3ccc(C(F)(F)F)cc3)cc2)CC1` [Compound 4]: the IC50 was 8.02 nM. The same measure, in the same setting: the value for `COC(=O)CC1CCN(c2ccc(NC(=O)c3ccccc3-c3ccc(C(F)(F)F)cc3)cc2)CC1` [Compound 11] was 12.1 nM; that for `CC(C)(C)c1ccc(-c2ccccc2C(=O)Nc2ccc(N3CCC(C(=O)NCc4ccccc4)CC3)cc2)cc1` [Compound 8] was 153 nM; that for `CC(C)(C)c1ccc(-c2ccccc2C(=O)Nc2ccc(N3CCC(CC(=O)NCc4ccccc4)CC3)cc2)cc1` [Compound 2] was 6.04 nM. Turning to `CCOC(=O)CC1CCN(c2ccc(NC(=O)c3ccc(C)cc3-c3ccc(C(F)(F)F)cc3)cn2)CC1` [Compound 15], the IC50 is 25.6 nM.
